Experimental findings from ChEMBL document CHEMBL1126767, “Three-dimensional quantitative structure-activity relationship of angiotesin-converting enzyme and thermolysin inhibitors. II. A comparison of CoMFA models incorporating molecular orbital fields and desolvation free energies based on active-analog and complementary-receptor-field alignment rules” (J Med Chem, 1993) are described below.

Square brackets hold non-standard residues; d marks the D form. Peptide text beside a SMILES is read from it. Mpa = O=C(O)CCS

One test has as its target Angiotensin-converting enzyme (Homo sapiens, UniProt P12821). Nature of the test: Inhibitory activity against angiotensin converting enzyme (ACE). Format: functional.
What is called IC50 is the concentration that gives 50% inhibition. In turn, `NCCCC[C@H](OP(=O)(O)CCCCc1ccccc1)C(=O)N1C[C@@H](O)C[C@H]1C(=O)O` had a concentration for half-maximal inhibition (IC50) of 0.0158 µM.
On the same count and under the same terms, as for `O=C(O)[C@H]1CCCN1C(=O)CCS`, the figure is 1820 µM; as for `CC(C)[C@H](NC(=O)CCC(=O)O)C(=O)O`, 1100 µM; as for `CC[C@@H](C)[C@H](C)C(=O)N[C@@H](Cc1ccccc1)C(=O)O`, 933 µM.
Still for that read-out and setting: as for `O=C(NC(Cc1ccccc1)CP(=O)(O)CC(=O)N1CCC[C@H]1C(=O)O)c1ccccc1` (some centres not stated), the figure is 0.01 µM; as for `C[C@H](NC(=O)CCS)C(=O)O`, 0.851 µM; as for `C[C@H](NC(CCC(=O)Nc1ccccc1)C(=O)O)C(=O)N1CCC[C@H]1C(=O)O` (some centres not stated), 0.00525 µM.
The same measure, in the same setting: the figure for `O=C(O)[C@@H]1C=CCN1C(=O)CCS` is 0.646 µM; for `C[C@H](NC(CCN)C(=O)O)C(=O)N1CCC[C@H]1C(=O)O` (some centres not stated) it is 0.324 µM; for `O=C(O)CCNC(=O)CCS` it is 490 µM.
As for `NCCCC[C@H](OP(=O)(O)CCCCc1ccccc1)C(=O)N1CC2(C[C@H]1C(=O)O)SCCS2`, the half-maximal inhibitory concentration (IC50) is 0.000631 µM.
Still for that read-out and setting: as for `O=C(O)CCCCCS`, the figure is 1100 µM; as for `CN(C(=O)CCS)[C@@H](Cc1ccccc1)C(=O)O`, 30.9 µM.
On the same count and under the same terms, as for `NCCCC[C@H](OP(=O)(O)CCCCc1ccccc1)C(=O)N1c2ccccc2C[C@H]1C(=O)O`, the figure is 0.000295 µM; as for `NCCCC[C@H](OP(=O)(O)CCCCc1ccccc1)C(=O)N1C[C@@H](Sc2ccccc2)C[C@H]1C(=O)O`, 0.000525 µM.
The same measure, in the same setting: as for `C[C@@]1(CCS)C(=O)N2CC=C[C@@H](C(=O)O)N2C1=O`, the figure is 0.1 µM.
In turn, `Cc1ccc(N(CC(=O)O)C(=O)C(C)N)cc1` (configuration not stated) gave a 50% inhibitory concentration (IC50) of 2.57 µM.
As for `O=C(CS)N[C@@H](CS)C(=O)O`, the 50% inhibitory concentration (IC50) is 19.1 µM.
The same measure, in the same setting: the figure for `O=C(O)[C@@H]1CCCN1C(=O)C1CCCC1S` (some centres not stated) is 0.0646 µM.
On the same count and under the same terms, as for `NCCCC[C@H](OP(=O)(O)CCCCc1ccccc1)C(=O)N(CC(=O)O)c1ccccc1`, the figure is 0.00107 µM.
The same measure, in the same setting: the figure for `COP(=O)(O)C(CCc1ccccc1)N[C@@H](C)C(=O)N1CCC[C@H]1C(=O)O` (some centres not stated) is 0.437 µM; for `CC(S)C(=O)N[C@@H](CS)C(=O)O` (stereo in doubt; form 2) it is 7.94 µM; for `O=C(CS)N[C@@H](Cc1c[nH]cn1)C(=O)O` it is 257 µM.
As for `O=C(O)CCC(=O)N1CCC[C@H]1C(=O)O`, it took 33.1 µM to reach half-maximal inhibition (IC50).
Same read-out and setting: the figure for `O=C(CCS)N[C@@H](Cc1ccccc1)C(=O)O` is 0.427 µM.
`O=C(O)CN1C(=O)C(NC(CCc2ccccc2)C(=O)O)CCc2ccccc21` (configuration not stated) showed an IC50 of 0.0017 µM.
In the case of `C[C@@H](NC(=O)C(S)Cc1ccccc1)C(=O)N1CCC[C@H]1C(=O)O` (some centres not stated), inhibition was half-maximal at 0.0501 µM (IC50).
On the same count and under the same terms, the figure for `C[C@H](NC(CCC(=O)Nc1ccc(I)cc1)C(=O)O)C(=O)N1CCC[C@H]1C(=O)O` (some centres not stated) is 0.000229 µM.
The same measure, in the same setting: the figure for `NCC(=O)N[C@@H](Cc1ccccc1)C(=O)O` (H-Gly-Phe-OH) is 603 µM; for `CC(C(=O)O)C1CCCCC(CS)C1=O` (configuration not stated) it is 0.0525 µM.
Same read-out and setting: the figure for `C[C@H](NC(CCc1ccccc1)C(N)=O)C(=O)N1CCC[C@H]1C(=O)O` (some centres not stated) is 25.7 µM.
Compound `C[C@@H](N)C(=O)N[C@@H](Cc1ccccc1)C(=O)O` (stereo in doubt; 53) gave a concentration for half-maximal inhibition (IC50) of 52.5 µM.
Same read-out and setting: as for `C[C@H](NC(=O)CCS)C(=O)N1CCC[C@H]1C(=O)O` ([Mpa]-Ala-Pro-OH), the figure is 2.57 µM.
Same read-out and setting: as for `CC(S)C(=O)N[C@@H](Cc1c[nH]c2ccccc12)C(=O)O` (stereo in doubt; form 2), the figure is 0.0646 µM; as for `CC(C)C[C@H](NC(=O)CCC(=O)O)C(=O)O`, 617 µM.
The same measure, in the same setting: the figure for `O=C(CCS)N[C@@H](Cc1cnc[nH]1)C(=O)O` is 229 µM; for `C[C@H](NP(=O)(O)O)C(=O)N1CCC[C@H]1C(=O)O` it is 0.776 µM; for `C[C@H](NC(CCc1ccc(O)cc1)C(=O)O)C(=O)N1CCC[C@H]1C(=O)O` (some centres not stated) it is 0.00282 µM.
Consider `CS[C@@H]1C[C@@H](C(=O)O)N(C(=O)[C@H](CCCCN)OP(=O)(O)CCCCc2ccccc2)C1`, for which the 50% inhibitory concentration (IC50) was 0.000525 µM.
Still for that read-out and setting: the figure for `O=C(O)CCn1c(=O)n2n(c1=O)[C@H](C(=O)O)C=CC2` is 0.001 µM.
Same read-out and setting: as for `NCCCC[C@H](OP(=O)(O)CCCCc1ccccc1)C(=O)N1CCC[C@H]1C(=O)O` [CERONAPRIL], the figure is 0.0363 µM; as for `C[C@H](NCCCc1ccccc1)C(=O)N1CCC[C@H]1C(=O)O`, 5.75 µM.
On the same count and under the same terms, as for `N[C@@H](Cc1ccccc1)C(=O)N[C@H](CCC(=O)N1[C@H](C(=O)O)C[C@@H]2CCCC[C@@H]21)C(=O)O`, the figure is 0.219 µM.
`CC(C)[C@H](NC(=O)CCS)C(=O)O` showed an IC50 of 1.58 µM.
In the case of `O=C(O)CNC(=O)CCS`, 2.82 µM corresponded to half-maximal inhibition (IC50).
Still for that read-out and setting: as for `C[C@H](NP(=O)(O)OCc1ccccc1)C(=O)N1CCC[C@H]1C(=O)O`, the figure is 0.0407 µM; as for `C[C@H](NC(CCc1ccccc1)C(=O)O)C(=O)N(CC(=O)O)C1Cc2ccccc2C1` (some centres not stated), 0.0398 µM; as for `O=C(O)[C@@H]1CCCN1CCCS`, 240 µM.
Still for that read-out and setting: as for `NCCCC[C@H](OP(=O)(O)CCCCc1ccccc1)C(=O)N1C[C@@H](C2CCCCC2)C[C@H]1C(=O)O`, the figure is 0.00049 µM.
Consider `NCCCC[C@H](OP(=O)(O)CCCCc1ccccc1)C(=O)N(CC(=O)O)C1CCCCC1`, for which the IC50 was 0.000295 µM.
Take `CC(CS)C(=O)N[C@@H](Cc1c[nH]c2ccccc12)C(=O)O` (stereo in doubt; 30A): the IC50 is 0.0347 µM.

The target in a further test is T1, Angiotensin-converting enzyme (Rattus norvegicus, UniProt P47820).
T1 sequence (P47820 whole entry): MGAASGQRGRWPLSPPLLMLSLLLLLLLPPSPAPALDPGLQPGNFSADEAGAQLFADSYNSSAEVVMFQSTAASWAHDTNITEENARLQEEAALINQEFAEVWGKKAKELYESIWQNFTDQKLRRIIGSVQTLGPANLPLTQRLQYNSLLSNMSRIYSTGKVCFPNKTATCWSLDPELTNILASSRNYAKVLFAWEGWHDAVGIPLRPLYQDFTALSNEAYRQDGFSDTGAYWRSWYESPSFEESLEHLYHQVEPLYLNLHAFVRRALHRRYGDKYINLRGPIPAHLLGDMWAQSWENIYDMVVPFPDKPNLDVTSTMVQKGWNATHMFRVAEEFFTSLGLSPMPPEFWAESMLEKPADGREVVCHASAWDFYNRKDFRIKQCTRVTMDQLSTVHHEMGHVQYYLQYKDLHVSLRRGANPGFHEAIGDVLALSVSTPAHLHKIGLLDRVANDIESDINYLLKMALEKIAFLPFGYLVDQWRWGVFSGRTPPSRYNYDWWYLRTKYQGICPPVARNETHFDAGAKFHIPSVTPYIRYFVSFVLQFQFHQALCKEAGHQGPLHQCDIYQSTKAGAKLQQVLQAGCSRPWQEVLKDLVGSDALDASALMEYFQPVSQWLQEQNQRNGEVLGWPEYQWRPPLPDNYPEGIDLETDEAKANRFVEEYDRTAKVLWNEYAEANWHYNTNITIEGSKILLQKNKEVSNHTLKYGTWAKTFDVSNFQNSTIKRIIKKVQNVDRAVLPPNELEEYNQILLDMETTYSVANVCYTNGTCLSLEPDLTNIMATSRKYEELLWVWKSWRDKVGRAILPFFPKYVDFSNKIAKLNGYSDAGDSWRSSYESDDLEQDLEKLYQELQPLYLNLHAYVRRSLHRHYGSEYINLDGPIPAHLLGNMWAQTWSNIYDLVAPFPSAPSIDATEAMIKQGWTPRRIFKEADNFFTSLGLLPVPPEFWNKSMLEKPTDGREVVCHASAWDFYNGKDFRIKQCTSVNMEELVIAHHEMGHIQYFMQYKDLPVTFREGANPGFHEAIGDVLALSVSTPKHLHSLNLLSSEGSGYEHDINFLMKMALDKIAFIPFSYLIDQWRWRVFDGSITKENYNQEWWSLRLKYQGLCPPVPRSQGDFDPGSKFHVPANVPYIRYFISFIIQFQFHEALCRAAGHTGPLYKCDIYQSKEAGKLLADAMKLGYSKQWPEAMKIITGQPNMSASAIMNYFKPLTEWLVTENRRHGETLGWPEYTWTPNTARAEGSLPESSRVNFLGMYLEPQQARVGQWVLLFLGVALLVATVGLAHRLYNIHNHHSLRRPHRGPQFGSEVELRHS
Nature of the test: Inhibitory activity against angiotensin converting enzyme (ACE); Activity is for a diastereomeric or racemic mixture. Format: functional.
As for `C[C@H](NC(C(=O)O)C(Cc1ccccc1)NC(=O)c1ccccc1)C(=O)N1CCC[C@H]1C(=O)O` (some centres not stated), the IC50 is 0.00776 µM.
